This note sets out measurements from US20030069232A1, “Topical treatment of ocular hypertension, glaucoma, ischemic retinopathy and age-related macular degeneration with ophthalmic formulation of dopamine antagonists” (priority 1999, published 2003).

In this series the test system is New Zealand white rabbit eyes. As to the kind of experiment: Eye irritation in rabbit eyes (Draize Test). The series is classed as in vivo. Conditions: 50 μl of 1% droperidol; slit lamp biomicroscope. As to the method: 50 μl of 1% droperidol was used to test for eye irritation in New Zealand white rabbit eyes using the standard procedure of the Draize Test. […] Eyedrops were instilled in the eyes, and the responses of the eyes were examined with a slit lamp biomicroscope.

`O=C(CCCN1CC=C(n2c(=O)[nH]c3ccccc32)CC1)c1ccc(F)cc1` [droperidol, Droperidol]: the Eye irritation result was “either absent or insignificant”.
